Target: ATP-dependent translocase ABCB1 (Mus musculus, UniProt P21447)
Test: TP_TRANSPORTER: increase in Vinblastine intracellular accumulation in F4-6RADR cells
Format: functional, cell-based

ATP-dependent translocase ABCB1, sequence (P21447 whole entry): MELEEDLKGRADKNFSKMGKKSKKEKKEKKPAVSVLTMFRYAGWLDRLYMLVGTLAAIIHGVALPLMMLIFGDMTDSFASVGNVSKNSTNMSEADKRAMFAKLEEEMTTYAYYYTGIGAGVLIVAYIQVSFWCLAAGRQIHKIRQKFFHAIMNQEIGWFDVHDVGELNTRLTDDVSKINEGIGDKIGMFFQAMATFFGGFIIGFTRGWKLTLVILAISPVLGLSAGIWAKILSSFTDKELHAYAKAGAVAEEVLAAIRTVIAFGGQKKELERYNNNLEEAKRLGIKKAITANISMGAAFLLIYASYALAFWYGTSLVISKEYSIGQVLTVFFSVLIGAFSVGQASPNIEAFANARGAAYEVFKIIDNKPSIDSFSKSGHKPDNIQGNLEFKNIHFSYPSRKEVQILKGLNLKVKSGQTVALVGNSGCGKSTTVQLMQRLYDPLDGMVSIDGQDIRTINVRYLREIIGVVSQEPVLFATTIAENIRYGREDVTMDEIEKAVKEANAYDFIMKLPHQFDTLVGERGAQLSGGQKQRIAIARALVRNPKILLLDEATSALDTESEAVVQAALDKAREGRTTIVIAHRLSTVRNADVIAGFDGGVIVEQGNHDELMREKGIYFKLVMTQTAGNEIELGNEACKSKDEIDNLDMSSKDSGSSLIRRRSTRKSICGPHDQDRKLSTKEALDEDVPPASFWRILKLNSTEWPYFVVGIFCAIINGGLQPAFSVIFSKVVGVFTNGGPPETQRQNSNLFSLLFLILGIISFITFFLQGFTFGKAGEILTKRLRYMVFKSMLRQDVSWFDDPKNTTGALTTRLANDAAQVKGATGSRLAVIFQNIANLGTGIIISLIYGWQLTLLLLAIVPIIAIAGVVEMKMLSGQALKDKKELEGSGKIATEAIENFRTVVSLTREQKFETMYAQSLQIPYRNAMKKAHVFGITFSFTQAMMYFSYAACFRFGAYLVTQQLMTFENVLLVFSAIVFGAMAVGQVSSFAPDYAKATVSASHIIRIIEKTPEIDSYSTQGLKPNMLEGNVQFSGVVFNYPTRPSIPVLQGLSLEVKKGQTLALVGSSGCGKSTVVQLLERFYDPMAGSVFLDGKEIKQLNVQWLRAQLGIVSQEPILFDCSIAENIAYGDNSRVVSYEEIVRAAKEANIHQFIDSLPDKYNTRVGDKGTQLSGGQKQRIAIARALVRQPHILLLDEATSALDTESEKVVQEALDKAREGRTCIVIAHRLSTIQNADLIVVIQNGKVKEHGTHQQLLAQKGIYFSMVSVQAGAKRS

COC(=O)C1=C(C)NC(C)=C(C(=O)OCCCN2CCC(c3ccccc3)(c3ccccc3)CC2)[C@H]1c1cccc([N+](=O)[O-])c1 [NIGULDIPINE]
Activity: inhibitor [+]

CCOC(=O)C1=C(C)NC(C)=C(C(=O)OC)C1c1cccc([N+](=O)[O-])c1 (stereo not drawn) [NITRENDIPINE]
Activity: inhibitor [+]

COC(=O)C1=C(C)NC(C)=C(C(=O)OC(C)C)C1c1cccc2nonc12 (stereo not drawn) [ISRADIPINE]
Activity: inhibitor [+]

CCOC(=O)C1=C(C)NC(C)=C(C(=O)OC)C1c1cccc(Cl)c1Cl (stereo not drawn) [FELODIPINE]
Activity: inhibitor [+]

COc1cccc(CCN(C)CCCC(C#N)(c2ccc(OC)c(OC)c2)C(C)C)c1 (stereo not drawn)
Activity: inhibitor [+]

COCCOC(=O)C1=C(C)NC(C)=C(C(=O)OC(C)C)C1c1cccc([N+](=O)[O-])c1 (stereo not drawn) [NIMODIPINE]
Activity: inhibitor [+]

COc1ccc(CCN(C)CCCC(C#N)(c2cc(OC)c(OC)c(OC)c2)C(C)C)cc1OC (stereo not drawn) [GALLOPAMIL]
Activity: inhibitor [+]

CC(C)C(C#N)(CCCN(C)CCc1ccccc1)c1ccccc1 (stereo not drawn) [EMOPAMIL]
Activity: inhibitor [+]
